Experimental data: patent US11415579B2, “Assay for measuring a rate of reaction between a target and a ligand candidate” (Imperial College Innovations Ltd., priority 2016, dated 2022)

Key:
Cdk2[C177A, F80C, K278C] = target: T1, Cdk2[C177A, F80C, K278C] (Homo sapiens, UniProt P24941, C177A/F80C/K278C); experiment: Kinetic thiol consumption assay with mutant Cdk2 as model thiol; type: binding; parameters: unit not given here; conditions: 500 μM ligand, 5 μM thiol, phosphate buffer pH 8
T1 construct: poly-histidine; made in house; host or cells: E. coli
Procedure, shortened: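 Model thiol: His-tagged human Cdk2 C177A/F80C/K278C (two engineered surface cysteines), E. coli-expressed, 5 μM in degassed phosphate buffer pH 8 with immobilized TCEP beads (2% v/v). Fluorescence (ex/em 380/470 nm) followed over time at room temperature, normalized to DMSO/thiol control. First-order decay fit gives rate constants.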

Cdk2(H71C) (C177A) = target: T2, Cdk2(H71C) (C177A) (Homo sapiens, UniProt P24941, C177A/H71C); experiment: Kinetic thiol consumption assay with Cdk2 mutant H71C; type: binding; parameters: key to Rate enhancement, Cdk2 H71C: rate constant with Cdk2 ÷ rate constant with model thiol (fold); conditions: additional mutation C177A; for Rate constant with Cdk2 H71C: Protein: Cdk2, cysteine position H71C, in h^-1
T2 construct: poly-histidine; made in house; host or cells: E. coli
Procedure, shortened: (§1)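 His-tagged single-surface-cysteine Cdk2 mutants (C177A background) from E. coli, 5 μM in degassed phosphate buffer pH 8, pre-treated with immobilized TCEP beads. Fluorescence (ex/em 380/470 nm) read after 1 h at room temperature, normalized to DMSO/thiol-only control; first-order decay fits gave rate constants, divided by model-thiol rate for rate enhancement.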

Cdk2(N272C) (C177A) = target: T3, Cdk2(N272C) (C177A) (Homo sapiens, UniProt P24941, C177A/N272C); experiment: Kinetic thiol consumption assay with Cdk2 mutant N272C; type: binding; parameters: key to Rate enhancement, Cdk2 N272: rate constant with Cdk2 ÷ rate constant with model thiol (fold); conditions: for Rate enhancement, Cdk2 N272: Cdk2 N272, additional mutation C177A; for Rate constant with Cdk2 N272C: Protein: Cdk2, cysteine position N272C, additional mutation C177A, in h^-1
T3 construct: poly-histidine; made in house; host or cells: E. coli
Procedure, shortened: as §1

Cdk2(S276C) (C177A) = target: T4, Cdk2(S276C) (C177A) (Homo sapiens, UniProt P24941, C177A/S276C); experiment: Kinetic thiol consumption assay with Cdk2 mutant S276C; type: binding; parameters: key to Rate enhancement, Cdk2 S276C: rate constant with Cdk2 ÷ rate constant with model thiol (fold); conditions: additional mutation C177A; for Rate constant with Cdk2 S276C: Protein: Cdk2, cysteine position S276C, in h^-1
T4 construct: poly-histidine; made in house; host or cells: E. coli
Procedure, shortened: as §1

[1] = Kinetic thiol consumption assay with model thiol glutathione; type: physicochemical; parameters: Rate constant with glutathione (k(GSH)): unit not given here; conditions: for Rate constant with glutathione (k(GSH)): 500 μM ligand, 5 μM thiol, phosphate buffer pH 8; for Rate constant with Glutathione: Protein: Glutathione, cysteine position NA, in h-1
Procedure, shortened: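 Rate constants for acrylamide reaction with 5 μM glutathione come from first-order exponential fits of normalized fluorescence decay (ex 380, em 470 nm). Reactions run in degassed phosphate buffer at pH 8 containing TCEP beads, room temperature.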

Cdk2(C177A, F80C) = target: T5, Cdk2(C177A, F80C) (Homo sapiens, UniProt P24941, C177A/F80C); experiment: Kinetic thiol consumption assay with Cdk2 mutant F80C, incl. kobs versus concentration (Kd, k2); type: binding; parameters: key to Rate enhancement, Cdk2 F80C: Cdk2 rate constant divided by model-thiol rate constant; conditions: additional mutation C177A; for Rate constant with Cdk2 F80C: Protein: Cdk2, cysteine position F80C, in h^-1
T5 construct: poly-histidine; made in house; host or cells: E. coli
Procedure, shortened: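 His-tagged Cdk2(C177A/F80C) from E. coli or model thiol, 5 μM in degassed phosphate buffer pH 8 with TCEP beads, reacted with acrylamide ligands; fluorescence (ex/em 380/470 nm) normalized to DMSO control and fitted to first-order decay for kobs. Kd and k2 obtained from hyperbolic fit of kobs versus ligand concentration.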

[2] = target: T6, human cyclin-dependent kinase 2 (Cdk2) (Homo sapiens, UniProt P24941); experiment: Kinetic thiol consumption assay with wild type Cdk2 (C177); type: binding; parameters: key to Rate enhancement, Cdk2 WT: k(Cdk2) divided by k(model thiol); Rate constant with Cdk2 (k(Cdk2)): unit not given here; conditions: for Rate constant with Cdk2 (k(Cdk2)): 500 μM ligand, 5 μM thiol, phosphate buffer pH 8; for Rate enhancement, Cdk2 WT: no additional mutations; for Rate constant with Cdk2 WT: Protein: Cdk2, cysteine position WT, in h^-1; for k(Cdk2)/k(Cdk2_mut) rate enhancement: model thiol Cdk2[C177A, F80C, K278C]; for k(Cdk2)/k(GSH) rate enhancement: model thiol glutathione
T6 construct: poly-histidine; made in house; host or cells: E. coli
Procedure, shortened: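 Rate constants came from first-order exponential decay fits of normalized fluorescence against time, with thiol (5 μM) in degassed pH 8 phosphate buffer containing 2% v/v TCEP beads and reads after 1 h at room temperature.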

Cdk2(T182C) (C177A) = target: T7, Cdk2(T182C) (C177A) (Homo sapiens, UniProt P24941, C177A/T182C); experiment: Kinetic thiol consumption assay with Cdk2 mutant T182C; type: binding; parameters: key to Rate enhancement, Cdk2 T182C: rate constant with Cdk2 ÷ rate constant with model thiol (fold); conditions: additional mutation C177A; for Rate constant with Cdk2 T182C: Protein: Cdk2, cysteine position T182C, in h^-1
T7 construct: poly-histidine; made in house; host or cells: E. coli
Procedure, shortened: as §1

Cdk2(R122C) (C177A) = target: T8, Cdk2(R122C) (C177A) (Homo sapiens, UniProt P24941, C177A/R122C); experiment: Kinetic thiol consumption assay with Cdk2 mutant R122C; type: binding; parameters: key to Rate enhancement, Cdk2 R122C: rate constant with Cdk2 ÷ rate constant with model thiol (fold); conditions: additional mutation C177A; for Rate constant with Cdk2 R122C: Protein: Cdk2, cysteine position R122C, in h-1
T8 construct: poly-histidine; made in house; host or cells: E. coli
Procedure, shortened: as §1

Cdk2(S181C) (C177A) = target: T9, Cdk2(S181C) (C177A) (Homo sapiens, UniProt P24941, C177A/S181C); experiment: Kinetic thiol consumption assay with Cdk2 mutant S181C; type: binding; parameters: key to Rate enhancement, Cdk2 S181C: rate constant with Cdk2 ÷ rate constant with model thiol (fold); conditions: additional mutation C177A; for Rate constant with Cdk2 S181C: Protein: Cdk2, cysteine position S181C, in h^-1
T9 construct: poly-histidine; made in house; host or cells: E. coli
Procedure, shortened: as §1

SMILES	Rate constant with Cdk2[C177A, F80C, K278C] (k(Cdk2_mut)) (Cdk2[C177A, F80C, K278C])	Rate enhancement, Cdk2 H71C (Cdk2(H71C) (C177A))	Rate constant with Cdk2 H71C (Cdk2(H71C) (C177A))	Rate enhancement, Cdk2 N272 (Cdk2(N272C) (C177A))	Rate constant with Cdk2 N272C (Cdk2(N272C) (C177A))	Rate enhancement, Cdk2 S276C (Cdk2(S276C) (C177A))	Rate constant with Cdk2 S276C (Cdk2(S276C) (C177A))	Rate enhancement, Cdk2 F80C (Cdk2(C177A, F80C))	Rate constant with Cdk2 F80C (Cdk2(C177A, F80C))	Rate constant with Cdk2 (k(Cdk2)) [2]	Rate enhancement, Cdk2 WT [2]	Rate constant with Cdk2 WT [2]	k(Cdk2)/k(Cdk2_mut) rate enhancement [2]	k(Cdk2)/k(GSH) rate enhancement [2]	Rate enhancement, Cdk2 T182C (Cdk2(T182C) (C177A))	Rate constant with Cdk2 T182C (Cdk2(T182C) (C177A))	Rate enhancement, Cdk2 R122C (Cdk2(R122C) (C177A))	Rate enhancement, Cdk2 S181C (Cdk2(S181C) (C177A))	Rate constant with glutathione (k(GSH)) [1]	Rate constant with Glutathione [1]	also measured
C=CC(=O)NCCNC(=O)C1CCCN1S(=O)(=O)c1ccccc1 (stereo not shown) [CA-224]	0.00358	0.8417	0.003169	0.5596	0.002107	0.1717	0.0006465	0.1623	0.000611	0.00155	0.4112	0.001548	0.4329	0.3045	1.292	0.004866	0	0	0.00508	0.003765	
C=CC(=O)N1CC2CN(Cc3ccccc3)CC2C1 (stereo not shown) [CA-207]	0.00111	0		0.3358	0.005695	0.1692	0.00287	0.1388	0.002354	0.00578	0.3633	0.006162	5.219	0.5947	0.921	0.01562	0.3602	0.2075	0.00972	0.01696	Rate constant with Cdk2 R122C (Cdk2(R122C) (C177A)): 0.006109; Rate constant with Cdk2 S181C (Cdk2(S181C) (C177A)): 0.003519
C=CC(=O)N1CCOC2(CCCCC2)C1 [CA-193]	0.01059	1.842	0.05131	0.8528	0.02375	1.379	0.03841	1.419	0.03952	0.02444	0.8776	0.02444	2.308	1.028	3.878	0.108	0.6093	0.4083	0.02378	0.02785	Rate constant with Cdk2 R122C (Cdk2(R122C) (C177A)): 0.01697; Rate constant with Cdk2 S181C (Cdk2(S181C) (C177A)): 0.01137
C=CC(=O)N1CCCc2sccc2C1 [CA-034]	0.00997	1.75	0.03232	0.7223	0.01334	2.718	0.0502	1.278	0.02361	0.02784	1.053	0.01944	2.793	2.056	10.15	0.1874	0.6416	0.5858	0.01354	0.01847	Rate constant with Cdk2 R122C (Cdk2(R122C) (C177A)): 0.01185; Rate constant with Cdk2 S181C (Cdk2(S181C) (C177A)): 0.01082
C=CC(=O)Nc1cccc(C(F)(F)F)c1 [BN-80]	0.1284	0.1247	0.003721	0.2072	0.006181	0.6024	0.01797	1.308	0.03902	0.0419	1.405	0.0419	0.3263	1.404	4.026	0.1201	0.5528	0.4626	0.02984	0.02983	Rate constant with Cdk2 R122C (Cdk2(R122C) (C177A)): 0.01649; Rate constant with Cdk2 S181C (Cdk2(S181C) (C177A)): 0.0138

Second part, led by results:

Rate constant with Cdk2[C177A, F80C, K278C] (k(Cdk2_mut)) (Cdk2[C177A, F80C, K278C])	Rate enhancement, Cdk2 H71C (Cdk2(H71C) (C177A))	Rate constant with Cdk2 H71C (Cdk2(H71C) (C177A))	Rate enhancement, Cdk2 N272 (Cdk2(N272C) (C177A))	Rate constant with Cdk2 N272C (Cdk2(N272C) (C177A))	Rate enhancement, Cdk2 S276C (Cdk2(S276C) (C177A))	Rate constant with Cdk2 S276C (Cdk2(S276C) (C177A))	Rate enhancement, Cdk2 F80C (Cdk2(C177A, F80C))	Rate constant with Cdk2 F80C (Cdk2(C177A, F80C))	Rate constant with Cdk2 (k(Cdk2)) [2]	Rate enhancement, Cdk2 WT [2]	Rate constant with Cdk2 WT [2]	k(Cdk2)/k(Cdk2_mut) rate enhancement [2]	k(Cdk2)/k(GSH) rate enhancement [2]	Rate enhancement, Cdk2 T182C (Cdk2(T182C) (C177A))	Rate constant with Cdk2 T182C (Cdk2(T182C) (C177A))	Rate enhancement, Cdk2 R122C (Cdk2(R122C) (C177A))	Rate enhancement, Cdk2 S181C (Cdk2(S181C) (C177A))	SMILES	Rate constant with glutathione (k(GSH)) [1]	Rate constant with Glutathione [1]	also measured
0.00175	0.8583	0.01145	0.6555	0.008745	0.6022	0.008034	0.3123	0.004166	0.00974	0.7298	0.009736	5.551	0.7249	2.927	0.03904	0.3022	1.741	C=CC(=O)N1CCCN2C(=O)CCC12c1ccc(OC)cc1 (stereo not shown) [EL-1168]	0.01343	0.01334	Rate constant with Cdk2 R122C (Cdk2(R122C) (C177A)): 0.004032; Rate constant with Cdk2 S181C (Cdk2(S181C) (C177A)): 0.02323
0.01555	1.52	0.03901	0.5551	0.01425	0.7713	0.0198	0.4897	0.01257	0.01328	0.5173	0.01328	0.854	0.5173	1.411	0.03623	0.2677	1.051	C=CC(=O)N1CCN(C(=O)OCC)CC1c1cccs1 (stereo not shown) [EL-1121]	0.02567	0.02567	Rate constant with Cdk2 R122C (Cdk2(R122C) (C177A)): 0.006872; Rate constant with Cdk2 S181C (Cdk2(S181C) (C177A)): 0.02699
